Calls of active or inactive are those of the source. The rule behind the calls is not given here.

In this data set the test system is CCRIS mutagenicity, Ames/micronucleus/aberration tests. Nature of the data set: CCRIS mutagenicity studies.
Where [1] appears, read: Test System: AMES SALMONELLA TYPHIMURIUM, Strain/Indicator: TA98, Metabolic Activation: NONE, Method: PREINCUBATION
Where [2] appears, read: Test System: AMES SALMONELLA TYPHIMURIUM, Strain/Indicator: TA100, Metabolic Activation: NONE, Method: PREINCUBATION
The mark [3] stands for this setting: Test System: AMES SALMONELLA TYPHIMURIUM, Strain/Indicator: TA1535, Metabolic Activation: NONE, Method: PREINCUBATION

For `COC(=O)C(c1ccccc1)C1CCCCN1` (stereo unspecified), the mutagenic call by setting is: (End Point: IN VITRO CHROMOSOMAL ABERRATIONS, Test System: CHINESE HAMSTER OVARY CELLS, Metabolic Activation: NONE) “inactive; negative”; (End Point: IN VITRO CHROMOSOMAL ABERRATIONS, Test System: CHINESE HAMSTER OVARY CELLS, Metabolic Activation: RAT, LIVER, S-9, AROCLOR 1254) “active; positive”; (End Point: In vivo chromosomal aberrations, Test System: Peripheral blood lymphocytes, Species: Monkey, Strain/Sex: Rhesus/Male, Route: Oral) “inactive; negative”; (End Point: In vivo micronucleus, Test System: Peripheral blood lymphocytes, Species: Monkey, Strain/Sex: Rhesus/Male, Route: Oral) “inactive; negative”; (Test System: AMES SALMONELLA TYPHIMURIUM, Strain/Indicator: TA97, Metabolic Activation: HAMSTER, LIVER, S-9, AROCLOR 1254 (10 OR 30%), Method: PREINCUBATION) “inactive; negative”; (Test System: AMES SALMONELLA TYPHIMURIUM, Strain/Indicator: TA97, Metabolic Activation: NONE, Method: PREINCUBATION) “inactive; negative”. Further, the mutagenic call was “inactive; negative” (Test System: AMES SALMONELLA TYPHIMURIUM, Strain/Indicator: TA97, Metabolic Activation: RAT, LIVER, S-9, AROCLOR 1254 (10 OR 30%), Method: PREINCUBATION); “inactive; negative” (Test System: AMES SALMONELLA TYPHIMURIUM, Strain/Indicator: TA98, Metabolic Activation: HAMSTER, LIVER, S-9, AROCLOR 1254 (10%), Method: PREINCUBATION); “inactive; negative” (Test System: AMES SALMONELLA TYPHIMURIUM, Strain/Indicator: TA98, Metabolic Activation: HAMSTER, LIVER, S-9, AROCLOR 1254 (30%), Method: PREINCUBATION); “inactive; negative” under setting [1]; “inactive; negative” (Test System: AMES SALMONELLA TYPHIMURIUM, Strain/Indicator: TA98, Metabolic Activation: RAT, LIVER, S-9, AROCLOR 1254 (10%), Method: PREINCUBATION); “inactive; negative” (Test System: AMES SALMONELLA TYPHIMURIUM, Strain/Indicator: TA98, Metabolic Activation: RAT, LIVER, S-9, AROCLOR 1254 (30%), Method: PREINCUBATION). Further, the mutagenic call by setting is: (Test System: AMES SALMONELLA TYPHIMURIUM, Strain/Indicator: TA100, Metabolic Activation: HAMSTER, LIVER, S-9, AROCLOR 1254 (10%), Method: PREINCUBATION) “inactive; negative”; (Test System: AMES SALMONELLA TYPHIMURIUM, Strain/Indicator: TA100, Metabolic Activation: HAMSTER, LIVER, S-9, AROCLOR 1254 (30%), Method: PREINCUBATION) “inactive; negative”; under setting [2], “inactive; negative”; (Test System: AMES SALMONELLA TYPHIMURIUM, Strain/Indicator: TA100, Metabolic Activation: RAT, LIVER, S-9, AROCLOR 1254 (10%), Method: PREINCUBATION) “inactive; negative”; (Test System: AMES SALMONELLA TYPHIMURIUM, Strain/Indicator: TA100, Metabolic Activation: RAT, LIVER, S-9, AROCLOR 1254 (30%), Method: PREINCUBATION) “inactive; negative”; (Test System: AMES SALMONELLA TYPHIMURIUM, Strain/Indicator: TA1535, Metabolic Activation: HAMSTER, LIVER, S-9, AROCLOR 1254 (10%), Method: PREINCUBATION) “inactive; negative”. Further, the mutagenic call is “inactive; negative” (Test System: AMES SALMONELLA TYPHIMURIUM, Strain/Indicator: TA1535, Metabolic Activation: HAMSTER, LIVER, S-9, AROCLOR 1254 (30%), Method: PREINCUBATION); “inactive; negative” under setting [3]; “inactive; negative” (Test System: AMES SALMONELLA TYPHIMURIUM, Strain/Indicator: TA1535, Metabolic Activation: RAT, LIVER, S-9, AROCLOR 1254 (10%), Method: PREINCUBATION); “inactive; negative” (Test System: AMES SALMONELLA TYPHIMURIUM, Strain/Indicator: TA1535, Metabolic Activation: RAT, LIVER, S-9, AROCLOR 1254 (30%), Method: PREINCUBATION); “inactive; negative” (Test System: AMES SALMONELLA TYPHIMURIUM, Strain/Indicator: TA1537, Metabolic Activation: HAMSTER, LIVER, S-9, AROCLOR 1254 (10%), Method: PREINCUBATION); “inactive; negative” (Test System: AMES SALMONELLA TYPHIMURIUM, Strain/Indicator: TA1537, Metabolic Activation: NONE, Method: PREINCUBATION). Further, the mutagenic call reads like this: (Test System: AMES SALMONELLA TYPHIMURIUM, Strain/Indicator: TA1537, Metabolic Activation: RAT, LIVER, S-9, AROCLOR 1254 (10%), Method: PREINCUBATION) “inactive; negative”; (Test System: Rhesus monkey peripheral blood lymphocytes, Strain/Indicator: HPRT/6-Thioguanine, Metabolic Activation: None, Method: Determined at 3-mo intervals from test subjects exposed to test chemical for 20 mo) “inactive; negative”.

On to `CCC(=O)CN(C)N=O`, for which the mutagenic call (Test System: CHINESE HAMSTER V-79, Strain/Indicator: V-79/OUABAIN, Metabolic Activation: HAMSTER, HEPATOCYTES, Method: CELL-MEDIATED) is “active; positive”.

In the case of `CCCCCCCC(=O)CCc1ccc(O)c(OC)c1`, the mutagenic call by setting is: under setting [1], “inactive; negative”; (Test System: AMES SALMONELLA TYPHIMURIUM, Strain/Indicator: TA98, Metabolic Activation: RAT LIVER S-9, SODIUM PHENOBARBITAL, Method: PREINCUBATION) “inactive; negative”; under setting [2], “inactive; negative”; (Test System: AMES SALMONELLA TYPHIMURIUM, Strain/Indicator: TA100, Metabolic Activation: RAT LIVER S-9, SODIUM PHENOBARBITAL, Method: PREINCUBATION) “inactive; negative”; under setting [3], “inactive; negative”; (Test System: AMES SALMONELLA TYPHIMURIUM, Strain/Indicator: TA1535, Metabolic Activation: RAT LIVER S-9, SODIUM PHENOBARBITAL, Method: PREINCUBATION) “inactive; negative”. The mutagenic call was “inactive; negative” (Test System: AMES SALMONELLA TYPHIMURIUM, Strain/Indicator: TA1538, Metabolic Activation: NONE, Method: PREINCUBATION) and “inactive; negative” (Test System: AMES SALMONELLA TYPHIMURIUM, Strain/Indicator: TA1538, Metabolic Activation: RAT LIVER S-9, SODIUM PHENOBARBITAL, Method: PREINCUBATION).

For the molecule `O=[N+]([O-])c1ccc(N=N/C(=N\Nc2ccc(I)cc2)c2ccccc2)cc1`, the mutagenic call was “inactive; negative” (Test System: AMES SALMONELLA TYPHIMURIUM, Strain/Indicator: TA97, Metabolic Activation: NONE, Method: SPOT TEST); “inactive; negative” (Test System: AMES SALMONELLA TYPHIMURIUM, Strain/Indicator: TA97, Metabolic Activation: RAT, LIVER, S-9, PHENOBARBITAL, Method: SPOT TEST); “inactive; negative” under setting [1]; “inactive; negative” (Test System: AMES SALMONELLA TYPHIMURIUM, Strain/Indicator: TA98, Metabolic Activation: NONE, Method: SPOT TEST); “inactive; negative” (Test System: AMES SALMONELLA TYPHIMURIUM, Strain/Indicator: TA98, Metabolic Activation: RAT, LIVER, S-9, PHENOBARBITAL, Method: PREINCUBATION); “inactive; negative” (Test System: AMES SALMONELLA TYPHIMURIUM, Strain/Indicator: TA98, Metabolic Activation: RAT, LIVER, S-9, PHENOBARBITAL, Method: SPOT TEST). Besides, the mutagenic call by setting is: under setting [2], “inactive; negative”; (Test System: AMES SALMONELLA TYPHIMURIUM, Strain/Indicator: TA100, Metabolic Activation: NONE, Method: SPOT TEST) “inactive; negative”; (Test System: AMES SALMONELLA TYPHIMURIUM, Strain/Indicator: TA100, Metabolic Activation: RAT, LIVER, S-9, PHENOBARBITAL, Method: PREINCUBATION) “inactive; negative”; (Test System: AMES SALMONELLA TYPHIMURIUM, Strain/Indicator: TA100, Metabolic Activation: RAT, LIVER, S-9, PHENOBARBITAL, Method: SPOT TEST) “inactive; negative”; (Test System: AMES SALMONELLA TYPHIMURIUM, Strain/Indicator: TA102, Metabolic Activation: NONE, Method: SPOT TEST) “inactive; negative”; (Test System: AMES SALMONELLA TYPHIMURIUM, Strain/Indicator: TA102, Metabolic Activation: RAT, LIVER, S-9, PHENOBARBITAL, Method: SPOT TEST) “inactive; negative”.

Turning to `CC(C)N=C(NC(C)C)OCc1ccc([N+](=O)[O-])cc1`, the mutagenic call was “active; positive” under setting [1]; “active; positive” (Test System: AMES SALMONELLA TYPHIMURIUM, Strain/Indicator: TA98, Metabolic Activation: RAT, LIVER, S-9, PCB, Method: PREINCUBATION); “active; positive” under setting [2]; “active; positive” (Test System: AMES SALMONELLA TYPHIMURIUM, Strain/Indicator: TA100, Metabolic Activation: RAT, LIVER, S-9, PCB, Method: PREINCUBATION).

For the origin of these results see PubChem BioAssay AID1259407 (Chemical Carcinogenesis Research Information System (CCRIS), 2018).
